Read-outs that look alike come from different tables or passages of the source.
Columns and labels:
AktK = AktK (Homo sapiens, UniProt P31749); test: Luciferase-coupled chemiluminescence kinase assay (ATP consumption); type: biochemical; conditions: read-out: AKT-1 IC50
Procedure: (§1) One measure of inhibition is Ki. […] The Ki for a compound is determined from the IC50 based on three assumptions. First, only one compound molecule binds to the enzyme and there is no cooperativity. […] Third, the enzymatic rate of the enzyme-inhibitor complex is zero. The rate data (i.e. compound concentration) are fitted to the equation: […]
(§2) Luciferase-Coupled Chemiluminescence Assay Protocol
(§3) Kinase activity is measured as the percent of ATP consumed following the kinase reaction using luciferase-luciferin-coupled chemiluminescence. Reactions were conducted in 384-well white, medium binding microtiter plates (Greiner). Kinase reactions were initiated by combining test compounds, ATP and kinase in a 20 uL volume. The reaction mixture was incubated at ambient temperature for 3 hrs. For p70S6K and/or AktK, 2.5-5 nM of the enzyme was pre-incubated with compound in 20 mM Tris pH 7.5, 10 mM MgCl2, 0.03% TX-100, and 1 mM DTT for 30 minutes at room temperature. Following the kinase reaction, a 20 μL aliquot of luciferase-luciferin mix was added and the chemiluminescence signal measured using a Victor^2 plate reader (Perkin Elmer). The luciferase-luciferin mix contained 50 mM HEPES, pH 7.8, 67 mM oxalic acid (pH 7.8), 5 (or 50) mM DTT, 0.4% Triton X-100, 0.25 mg/mL coenzyme A, 63 μM AMP, 28 μg/1 mL luciferin and 40,000 units/mL luciferase. Total ATP consumption was limited to 25-60% and the IC50 values correlate well with those determined by radiometric assays.

p70S6K = p70S6K (Homo sapiens, UniProt P23443); test: as above; type: biochemical
p70S6K, sequence (P23443 whole entry): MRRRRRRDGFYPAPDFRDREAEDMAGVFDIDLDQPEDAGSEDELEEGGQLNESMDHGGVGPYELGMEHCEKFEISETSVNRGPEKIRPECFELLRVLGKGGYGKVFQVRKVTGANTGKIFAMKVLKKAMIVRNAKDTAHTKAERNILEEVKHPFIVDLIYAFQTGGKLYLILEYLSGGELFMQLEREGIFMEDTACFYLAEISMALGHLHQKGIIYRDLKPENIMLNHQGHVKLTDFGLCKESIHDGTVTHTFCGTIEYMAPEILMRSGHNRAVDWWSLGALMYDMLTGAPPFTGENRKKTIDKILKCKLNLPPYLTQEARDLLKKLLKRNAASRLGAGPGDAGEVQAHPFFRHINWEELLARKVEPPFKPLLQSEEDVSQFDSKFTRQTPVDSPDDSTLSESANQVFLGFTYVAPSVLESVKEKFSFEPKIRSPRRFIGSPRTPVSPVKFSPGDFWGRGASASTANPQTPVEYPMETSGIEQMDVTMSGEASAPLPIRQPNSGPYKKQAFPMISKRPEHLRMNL
Procedure: as §1, §2, §3

AktK, sequence (P31749 whole entry): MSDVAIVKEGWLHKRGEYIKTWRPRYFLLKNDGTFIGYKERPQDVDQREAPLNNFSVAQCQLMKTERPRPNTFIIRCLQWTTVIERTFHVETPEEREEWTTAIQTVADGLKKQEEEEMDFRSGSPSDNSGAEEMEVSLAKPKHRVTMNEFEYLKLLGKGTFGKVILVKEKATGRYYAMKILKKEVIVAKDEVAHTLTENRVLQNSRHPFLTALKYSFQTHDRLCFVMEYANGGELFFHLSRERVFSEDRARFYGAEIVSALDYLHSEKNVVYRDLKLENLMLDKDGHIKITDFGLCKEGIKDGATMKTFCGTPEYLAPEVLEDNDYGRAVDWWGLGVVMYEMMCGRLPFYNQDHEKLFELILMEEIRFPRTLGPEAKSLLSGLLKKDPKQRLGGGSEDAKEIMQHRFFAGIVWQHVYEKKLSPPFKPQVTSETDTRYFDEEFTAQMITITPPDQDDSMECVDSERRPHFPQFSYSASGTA

## CCCCC(=O)c1cc(NCCN2CCCC2)c(C)c(N2CCN(c3ncnc4[nH]nc(Br)c34)CC2)c1 [Entry 228, 1-{3-[4-(3-bromo-1H-pyrazolo[3,4-d]pyrimidin-4-yl)piperazin-1-yl]-4-methyl-5-[(2-pyrrolidin-1-ylethyl)amino]phenyl}pentan-1-one]
AktK; Table 1, class symbols per key
  IC50: < 100 nM
p70S6K; Table 1, class symbols per key
  IC50: < 100 nM

## Brc1ccc(N2CCN(c3ncnc4[nH]nc(Br)c34)CC2)cc1 [Entry 157, 3-bromo-4-[4-(4-bromophenyl)piperazin-1-yl]-1H-pyrazolo[3,4-d]pyrimidine]
AktK; Table 1, class symbols per key
  IC50: ≥ 10000 nM
p70S6K; Table 1, class symbols per key
  IC50: 100 to 1000 nM

## COc1cccc(N2CCN(c3ncnc4[nH]nc(Br)c34)CC2)c1 [Entry 65, 3-bromo-4-{4-[3-(methyloxy)phenyl]piperazin-1-yl}-1H-pyrazolo[3,4-d]pyrimidine]
AktK; Table 1, class symbols per key
  IC50: 1000 to 10000 nM
p70S6K; Table 1, class symbols per key
  IC50: < 100 nM

## COc1ccc(N2CCN(c3ncnc4[nH]ccc34)CC2)cc1 [Entry 304, 4-{4-[4-(methyloxy)phenyl]piperazin-1-yl}-7H-pyrrolo[2,3-d]pyrimidine]
AktK
  IC50: ≥ 10000 nM
p70S6K
  IC50: 1000 to 10000 nM

## Cc1c(NCCN2CCCC2)cc(Cl)cc1N1CCN(c2ncnc3[nH]nc(Br)c23)CC1 [Entry 29, 3-[4-(3-bromo-1H-pyrazolo[3,4-d]pyrimidin-4-yl)piperazin-1-yl]-5-chloro-2-methyl-N-(2-pyrrolidin-1-ylethyl)aniline]
AktK; Table 1, class symbols per key
  IC50: < 100 nM
p70S6K; Table 1, class symbols per key
  IC50: < 100 nM

## CCc1n[nH]c2ncnc(N3CCN(c4cc(Cl)cc(OC)c4C)CC3)c12 [Entry 126, 4-{4-[5-chloro-2-methyl-3-(methyloxy)phenyl]piperazin-1-yl}-3-ethyl-1H-pyrazolo[3,4-d]pyrimidine]
AktK; Table 1, class symbols per key
  IC50: ≥ 10000 nM
p70S6K; Table 1, class symbols per key
  IC50: < 100 nM

## CCc1n[nH]c2ncnc(N3CCN(c4cc(C(=O)Nc5ccccc5)cc(Br)c4C)CC3)c12 [Entry 192, 3-bromo-5-[4-(3-ethyl-1H-pyrazolo[3,4-d]pyrimidin-4-yl)piperazin-1-yl]-4-methyl-N-phenylbenzamide]
AktK; Table 1, class symbols per key
  IC50: 100 to 1000 nM
p70S6K; Table 1, class symbols per key
  IC50: < 100 nM

## Brc1n[nH]c2ncnc(N3CCN(c4cnccn4)CC3)c12 [Entry 107, 3-bromo-4-(4-pyrazin-2-ylpiperazin-1-yl)-1H-pyrazolo[3,4-d]pyrimidine]
AktK; Table 1, class symbols per key
  IC50: ≥ 10000 nM
p70S6K; Table 1, class symbols per key
  IC50: 100 to 1000 nM

## Fc1ccccc1N1CCN(c2ncnc3[nH]ccc23)CC1 [Entry 313, 4-[4-(2-fluorophenyl)piperazin-1-yl]-7H-pyrrolo[2,3-d]pyrimidine]
AktK
  IC50: ≥ 10000 nM
p70S6K
  IC50: 100 to 1000 nM

## Cc1ccc(Cl)cc1N1CCN(c2ncnc3[nH]nc(-c4cccs4)c23)CC1 [Entry 338, 4-[4-(5-chloro-2-methylphenyl)piperazin-1-yl]-3-(2-thienyl)-1H-pyrazolo[3,4-d]pyrimidine]
AktK
  IC50: 1000 to 10000 nM
p70S6K
  IC50: < 100 nM

## Cc1c(CCCN2CCN(C)CC2)cc(Cl)cc1N1CCN(c2ncnc3[nH]nc(Br)c23)CC1 [Entry 19, 3-bromo-4-(4-{5-chloro-2-methyl-3-[3-(4-methylpiperazin-1-yl)propyl]phenyl}piperazin-1-yl)-1H-pyrazolo[3,4-d]pyrimidine]
AktK; Table 1, class symbols per key
  IC50: < 100 nM
p70S6K; Table 1, class symbols per key
  IC50: < 100 nM

## FC(F)(F)c1ccc(N2CCN(c3ncnc4[nH]nc(Br)c34)CC2)cc1 [Entry 124, 3-bromo-4-{4-[4-(trifluoromethyl)phenyl]piperazin-1-yl}-1H-pyrazolo[3,4-d]pyrimidine]
AktK; Table 1, class symbols per key
  IC50: ≥ 10000 nM
p70S6K; Table 1, class symbols per key
  IC50: 100 to 1000 nM

## Cc1c(NCCN2CCCC2)cc(OCCC(F)(F)F)cc1N1CCN(c2ncnc3[nH]nc(Br)c23)CC1 [Entry 284, 3-[4-(3-bromo-1H-pyrazolo[3,4-d]pyrimidin-4-yl)piperazin-1-yl]-2-methyl-N-(2-pyrrolidin-1-ylethyl)-5-[(3,3,3-trifluoropropyl)oxy]aniline]
AktK; Table 1, class symbols per key
  IC50: < 100 nM
p70S6K; Table 1, class symbols per key
  IC50: < 100 nM

## COc1nccnc1N1CCN(c2ncnc3[nH]nc(Br)c23)CC1 [Entry 133, 3-bromo-4-{4-[3-(methyloxy)pyrazin-2-yl]pipera-zin-1-yl}-1H-pyrazolo[3,4-d]pyrimidine]
AktK; Table 1, class symbols per key
  IC50: ≥ 10000 nM
p70S6K; Table 1, class symbols per key
  IC50: 100 to 1000 nM

## Cc1c(NCCN2CCCC2)cc(OCC(C)(C)C)cc1N1CCN(c2ncnc3[nH]nc(Br)c23)CC1 [Entry 221, 3-[4-(3-bromo-1H-pyrazolo[3,4-d]pyrimidin-4-yl)piperazin-1-yl]-5-[(2,2-dimethylpropyl)oxy]-2-methyl-N-(2-pyrrolidin-1-ylethyl)aniline]
AktK; Table 1, class symbols per key
  IC50: < 100 nM
p70S6K; Table 1, class symbols per key
  IC50: < 100 nM

## Clc1ccc(N2CCN(c3ncnc4[nH]ccc34)CC2)cc1 [Entry 310, 4-[4-(4-chlorophenyl)piperazin-1-yl]-7H-pyrrolo[2,3-d]pyrimidine]
AktK
  IC50: ≥ 10000 nM
p70S6K
  IC50: 1000 to 10000 nM

## COCCOCc1n[nH]c2ncnc(N3CCN(c4cc(Cl)ccc4C)CC3)c12 [Entry 328, 4-[4-(5-chloro-2-methylphenyl)piperazin-1-yl]-3-({[2-(methyloxy)ethyl]oxy}methyl)-1H-pyrazolo[3,4-d]pyrimidine]
AktK
  IC50: 1000 to 10000 nM
p70S6K
  IC50: < 100 nM

## CCc1n[nH]c2ncnc(N3CCN(c4cccc(Cl)c4)CC3C(=O)OC)c12 (centres unmarked) [Entry 349, methyl 4-(3-chlorophenyl)-1-(3-ethyl-1H-pyrazolo[3,4-d]pyrimidin-4-yl)piperazine-2-carboxylate]
AktK
  IC50: ≥ 10000 nM
p70S6K
  IC50: 1000 to 10000 nM

## Clc1cc(Cl)cc(N2CCN(c3ncnc4[nH]nc(Br)c34)CC2)c1 [Entry 128, 3-bromo-4-[4-(3,5-dichlorophenyl)piperazin-1-yl]-1H-pyrazolo[3,4-d]pyrimidine]
AktK; Table 1, class symbols per key
  IC50: ≥ 10000 nM
p70S6K; Table 1, class symbols per key
  IC50: 100 to 1000 nM

## CCc1n[nH]c2ncnc(N3CCN(c4cc(Cl)cc(C(=O)NCCN(C)C)c4OC)CC3)c12 [Entry 374, 5-chloro-N-[2-(dimethylamino)ethyl]-3-[4-(3-ethyl-1H-pyrazolo[3,4-d]pyrimidin-4-yl)piperazin-1-yl]-2-(methyloxy)benzamide]
AktK
  IC50: 1000 to 10000 nM
p70S6K
  IC50: < 100 nM

## Cc1c(NCCN2CCCC2)cc(F)cc1N1CCN(c2ncnc3[nH]nc(Br)c23)CC1 [Entry 58, 3-[4-(3-bromo-1H-pyrazolo[3,4-d]pyrimidin-4-yl)piperazin-1-yl]-5-fluoro-2-methyl-N-(2-pyrrolidin-1-ylethyl)aniline]
AktK; Table 1, class symbols per key
  IC50: 100 to 1000 nM
p70S6K; Table 1, class symbols per key
  IC50: < 100 nM

## CCN(CC)CCOc1cc(Cl)cc(N2CCN(c3ncnc4c3c(C(F)(F)F)nn4C(C)(C)C)CC2)c1C [Entry 33, 2-[(5-chloro-3-{4-[1-(1,1-dimethylethyl)-3-(tri-fluoromethyl)-1H-pyrazolo[3,4-d]pyrimidin-4-yl]piperazin-1-yl}-2-methylphenyl)oxy]-N,N-diethylethanamine]
AktK; Table 1, class symbols per key
  IC50: 1000 to 10000 nM
p70S6K; Table 1, class symbols per key
  IC50: 1000 to 10000 nM

## CCCC(=O)c1cc(NCCN2CCCC2)cc(N2CCN(c3ncnc4[nH]nc(Br)c34)CC2)c1 [Entry 283, 1-{3-[4-(3-bromo-1H-pyrazolo[3,4-d]pyrimidin-4-yl)piperazin-1-yl]-5-[(2-pyrrolidin-1-ylethyl)amino]phenyl}butan-1-one]
AktK; Table 1, class symbols per key
  IC50: < 100 nM
p70S6K; Table 1, class symbols per key
  IC50: < 100 nM

## CCN(CC)CCCc1n[nH]c2ncnc(N3CCN(c4cc(Cl)ccc4C)CC3)c12 [Entry 399, 3-{4-[4-(5-chloro-2-methylphenyl)piperazin-1-yl]-1H-pyrazolo[3,4-d]pyrimidin-3-yl}-N,N-diethylpropan-1-amine]
AktK
  IC50: 1000 to 10000 nM
p70S6K
  IC50: 1000 to 10000 nM

## Cc1ccc(Cl)cc1N1CCN(c2ncnc3[nH]nc(CCCO)c23)CC1 [Entry 371, 3-{4-[4-(5-chloro-2-methylphenyl)piperazin-1-yl]-1H-pyrazolo[3,4-d]pyrimidin-3-yl}propan-1-ol]
AktK
  IC50: 1000 to 10000 nM
p70S6K
  IC50: < 100 nM

Reference: patent publication US8076338B2, “Kinase modulators and methods of use” (Exelixis, Inc., priority 2004, dated 2011)
